Laboratory results as given in paper PMC7058083, “Structural basis of ligand binding modes at the human formyl peptide receptor 2” (Nature Communications, 2020).

What was measured:
FPR2 [1] = test system: FPR2; design: method as in 3 sources, ref 4 = [4]; PMID 24285541; doi:10.1074/jbc.M113.509216; 4. He HQ Troksa EL Caltabiano G Pardo L Ye RD Structural determinants for the interaction of formyl peptide receptor 2 with peptide ligands J. Biol. Chem. 2014 289 2295 2306 10.1074/jbc.M113.509216 24 ||| ref 34 = [34]; PMID 11818455; 34. Bae YS Kim Y Park JC Suh PG Ryu SH The synthetic chemoattractant peptide, Trp-Lys-Tyr-Met-Val-D-Met, enhances monocyte survival via PKC-dependent Akt activation J. Leukoc. Biol. 2002 71 329 338 11 ||| ref 35 = [35]; PMID 11285256; doi:10.1074/jbc.M007769200; 35. Christophe T The synthetic peptide Trp-Lys-Tyr-Met-Val-Met-NH 2 specifically activates neutrophils through FPRL1/lipoxin A 4 receptors and is an agonist for the orphan monocyte-expressed chemoattr; conditions: cited from earlier work
FPR2 [2] = test system: FPR2; design: method as in PMID 24285541; conditions: cited from earlier work
Procedure: To investigate the binding mode of formyl peptide in FPR2, molecular docking of this tripeptide to the FPR2 crystal structure was performed (Supplementary Data 2). […] It was also reported that the polar residue D281^7.32 was crucial for the interaction of FPR2 with certain formyl peptides. It was proposed that this negatively charged residue in FPR2 was repulsive with the C-terminal COO− group of fMLF and the negatively charged glutamate residue in fMLFE, but forms a stable interaction with the p ...

[3] = test system: FPR2 (wild type and mutant V113A); test: cAMP inhibition assay, HEK293 cells, 5 μM forskolin; assay type: cell-based, human
Source text: contribute to the effect of mutations on ligand binding and receptor signaling in addition to the direct disruption of receptor-ligand interaction.
To make the above clear, the statement “The effect of these mutations on ligand binding and receptor signaling could be explained by direct disruption of the receptor-ligand interaction, destabilization of ligand-binding pocket conformation, and/or impairment of global conformational rearrangement required for receptor activation” has been added to the […]
3) The authors use the crystal structures as an opportunity to dock other ligands with the their experimentally determined structure of FPR2. With the exception of LXA4, the docking of formyl peptides with mutagenesis experiments produce insightful results for fMLFK. For LXA4, more work is necessary to justify the docking pose. Otherwise, it is my opinion that it should […]
— We appreciated the reviewer’s comment. Functional assays for LXA4 are challenging due to the poor ability of this ligand to trigger calcium mobilization and IP accumulation. To verify the predicted binding mode of LXA4 in FPR2, we have performed additional assays by […]
fold while having minimal effect on the LXA4-induced cAMP reduction. […]
model of LXA4. […]
was detected and the concentrations were shown. […]
5) How was the omit map calculated to remove any bias for the agonist in SFig. […]

FPR2 [4] = conditions: cited from earlier work
Source text: This movement breaks the hydrogen bonds between the C-terminal NH2- group of the peptide and the receptor residues D106^3.33 and R201^5.38, and disrupts the polar interaction network establishe ...

fMLFII [formyl pentapeptide agonist]
agonist potency over fMLF at FPR2 (FPR2 [1]): increased | binding affinity over fMLF at FPR2 (FPR2 [2]): increased

N-formyl-Met-Leu-Phe [fMLF]
lower potency in inducing Ca2+ mobilization (FPR2 [1]; FPR2 compared to FPR1): 2000 fold | lower binding affinity (FPR2 [2]; FPR2 compared to FPR1): over 400 fold

CCCCC[C@H](O)/C=C/C=C\C=C\C=C\[C@@H](O)[C@@H](O)CCCC(=O)O [LXA4, lipoxin A4]
effect of mutation on ligand-induced cAMP reduction ([3]; FPR2 V113A, 30 min): minimal | change in intracellular cAMP ([3]; wild-type FPR2, 30 min): measurable changes

WKYMVM-NH2
reduction in EC50 in stimulating phosphoinositide hydrolysis relative to WKYMVm (FPR2 [4]): over 100 fold
